# Patent US20250073284A1, “WEISSELLA CONFUSA, CULTURE METHOD THEREFOR AND USE THEREOF” (SHANGHAI SINGEN PET NUTRITION CO., LTD., priority 2021, published 2025)
# Experiments:
# strain WSG1 [1] = test: Susceptibility evaluation, K-B method (zones of inhibition of antibiotics); format: cell-based, Weissella confusa; details: antibiotic against strain WSG1, K-B method
# strain WSG1 [2] = test: Susceptibility evaluation, MIC method; format: cell-based; details: Weissella confusa; marbofloxacin against strain WSG1
Molecule,Diameter of zone of inhibition (strain WSG1 [1]) [mm],MIC (strain WSG1 [2]) [µg/mL]
"CC1(C)S[C@@H]2[C@H](NC(=O)[C@H](N)c3ccc(O)cc3)C(=O)N2[C@H]1C(=O)O [Amoxicillin, amoxicillin]",15.0,
"CC[C@H]1OC(=O)[C@H](C)[C@@H](O[C@H]2C[C@@](C)(OC)[C@@H](O)[C@H](C)O2)[C@H](C)[C@@H](O[C@@H]2O[C@H](C)C[C@H](N(C)C)[C@H]2O)[C@](C)(O)C[C@@H](C)CN(C)[C@H](C)[C@@H](O)[C@]1(C)O [Azithromycin, azithromycin]",15.5,
"CC1=C(C(=O)O)N2C(=O)[C@@H](NC(=O)[C@H](N)c3ccccc3)[C@H]2SC1 [Cefalexin, cefalexin]",15.5,
"Cc1nnc(SCC2=C(C(=O)O)N3C(=O)[C@@H](NC(=O)Cn4cnnn4)[C@H]3SC2)s1 [Cefazolin, cefazolin]",19.5,
"CC1=C(C(=O)O)N2C(=O)[C@@H](NC(=O)[C@H](N)C3=CCC=CC3)[C@H]2SC1 [Cefradine, cefradine]",17.5,
"CC(=O)OCC1=C(C(=O)O)N2C(=O)[C@@H](NC(=O)Cc3cccs3)[C@H]2SC1 [Cephalothin, cephalothin]",23.5,
"O=C(N[C@H](CO)[C@H](O)c1ccc([N+](=O)[O-])cc1)C(Cl)Cl [Chloramphenicol, chloramphenicol]",23.5,
"CCC[C@@H]1C[C@@H](C(=O)N[C@@H]([C@H]2O[C@H](SC)[C@H](O)[C@@H](O)[C@H]2O)[C@H](C)Cl)N(C)C1 [Clindamycin, clindamycin]",23.0,
"CCN1CCN(c2cc3c(cc2F)c(=O)c(C(=O)O)cn3C2CC2)CC1 [Enrofloxacin, enrofloxacin]",13.5,
"Cc1onc(-c2ccccc2)c1C(=O)N[C@@H]1C(=O)N2[C@@H]1SC(C)(C)[C@@H]2C(=O)O [Oxacillin, oxacillin]",7.5,
"CN(C)[C@@H]1C(O)=C(C(N)=O)C(=O)[C@@]2(O)C(O)=C3C(=O)c4c(O)cccc4[C@@](C)(O)[C@H]3C[C@@H]12 [Tetracycline, tetracycline]",19.5,
"CN[C@H](CC(C)C)C(=O)N[C@H]1C(=O)N[C@@H](CC(N)=O)C(=O)N[C@H]2C(=O)N[C@H]3C(=O)N[C@H](C(=O)N[C@H](C(=O)O)c4cc(O)cc(O)c4-c4cc3ccc4O)[C@H](O)c3ccc(c(Cl)c3)Oc3cc2cc(c3O[C@@H]2O[C@H](CO)[C@@H](O)[C@H](O)[C@H]2O[C@H]2C[C@](C)(N)[C@H](O)[C@H](C)O2)Oc2ccc(cc2Cl)[C@H]1O [Vancomycin, vancomycin]",0.0,
CN1CCN(c2c(F)cc3c(=O)c(C(=O)O)cn4c3c2OCN4C)CC1 [marbofloxacin],,1020
penicillin,23.5,
